Here are results for seven molecules from patent publication US4798892A, “2-hydroxypropylamine heteroaryl ester derivatives” (priority 1986, dated 1989).

Counter-ions that a name gives are not always drawn.

Data set [1] is described as follows: Enzymatic hydrolysis of beta blockers by dog aqueous humor (procedure C). The format is in vitro ADME. Conditions: for remaining at 1 h / remaining at 2 h: 37° C.; for remaining at 1 h: read-out: Percent drug remaining, dog aqueous humor, 1 HR; for remaining at 2 h: read-out: Percent drug remaining, dog aqueous humor, 2 HR; for half-life: approximate value determined by procedure C, read-out: T1/2 dog aqueous humor; for metabolised at 1 h: one hour, read-out: hydrolyzed in aqueous humor after one hour; for metabolised at 2 h: two hours, read-out: hydrolyzed in aqueous humor after two hours. The procedure: (§1) Chemicals--Acetonitrile was "HPLC" grade. Distilled water was used to dissolve the compounds and 0.01N HCl was used to dissolve compounds requiring an acidic pH for dissolution.
(§2) Enzyme Source--Fresh aqueous humor was collected from eyes of dogs using a 23-gauge needle while fresh dog blood was collected into heparinized Vacutainer tubes. Fresh liver was homogenized in 0.9% NaCl using a Potter-Elvehjem Teflon pestle and glass homogenizer making a 25% (W/V) homogenate.
(§3) Incubation Condition--A 0.5 ml aliquot of dog aqueous humor, blood or liver homogenate was incubated with 12.5 μg (0.5 ml) of beta blocker in a Dubnoff shaking metabolic incubator at 37° C. for 60 and 120 min. Denatured tissue controls were prepared by adding 2.0 ml of acetonitrile into 0.5 ml of aqueous humor, blood or liver homogenate to destroy esterase activities prior to addition of the beta blockers. The controls were then incubated at 37° C. for 120 min. After 60 and 120 min, the incubations were terminated by addition of 2 ml of acetonitrile and immediately mixed by a Vortex® to stop esterase activities.
(§4) Sample Processing and Data Analyses--All samples were centrifuged at 4000 RPM for 10 min to sediment denatured proteins. The resultant supernatants were transferred to WISP® vials and analyzed using an HPLC assay developed for beta blockers. The hydrolysis of beta blockers by aqueous humor, blood and liver homogenate was determined by disappearance of the compounds. The extent of enzymatic hydrolysis by each tissue was determined by comparing the amount of each compound (absolute peak area) recovered at each time point to the amount of each compound (absolute peak area) in denatured tissue control and aqueous control samples. The results of these experiments are shown in Tabe III.

The test system of data set [2] is beta adrenergic receptor (guinea pig trachea vs right atria). The data set is described as follows: Degree of cardioselectivity in vitro, KB trachea/KB atria. To be noted: Table I; ratio greater than one indicates cardioselectivity. How it is done:
Each tissue was suspended between a fixed glass rod and a Statham Universal Transducer connected to a Beckman recorder. Atria were allowed to beat spontaneously under a loading tension of approximately 0.5 gm. Intrinsic depressant or stimulant activity was determined for each compound by progressively increasing concentrations in the tissue baths at 60-minute intervals. Tissues were not washed between increments. The maximum concentration showing little or no cardiodepressant activity was chosen for blockade experiments. Changes in rate in response to isoproterenol, a standard β-receptor agonist, were measured in the absence and presence of test compounds. Spiral strips of guinea pig trachea were suspended under 5 gm resting tension and incubated with phentolamine, tropolone and cocaine. Active tension was generated by addition of carbachol (3.0×10^-7 M) and decreases in tension in response to isoproterenol were quantitated. Cumulative concentration-response curves were produced with isoproterenol both before and after 60-minute incubation of test compounds with atria and trachea. […] The blocking potency of test compounds was estimated by computing pA2 values (-log […]) by the method of Furchgott, the Pharmacological Differentiation of Adrenergie Receptors, Ann. […] The degree of cardioselectivity was estimated from the ratio, KB trachea/KB atria (10^(pA.sbsp.2^atria-pA.sbsp.2^trachea)). A ratio greater than one indicates cardioselectivity. Test drugs were dissolved in distilled water and added to the bath (30 ml) in a volume of 10 or 100 μl.

The nature of data set [3]: Half-lives of beta blockers in dog whole blood (procedure D). The format is in vitro ADME. Conditions: 37° C., read-out: T1/2 dog blood. The procedure:
(§5) The rate of disappearance of a compound is expressed as the half-life (T1/2), which is the time period in which one half of the initial amount of compound tested disappears. In each experiment, 1 ml of a solution containing 50 μg of the test compound was added to 1 ml of whole blood or 1 ml of a 33% (w/v) liver homogenate. The samples were incubated in a Dubnoff shaking metabolic incubator for 2.5, 5.0, 10.0, 20.0, 30.0 and 60.0 minutes at 37° C. At the designated time periods, the test mixtures were removed from the incubator and transferred to a 0° C. ice bath. Acetonitrile (2 ml) was immediately added and the mixtures were mixed to stop enzymatic hydrolysis. Zero time samples were prepared by adding 2 ml of acetonitrile to denature the proteins prior to addition of the test compounds. After centrifugation to sediment denatured proteins, 2 ml of the supernatant was removed and analyzed by high pressure liquid chromatography, using a mobile phase of 60% acetonitrile/40% 0.05 m sodium phosphate buffer (pH 6.6), a U.V. detector and Waters u Bondapak Phenyl column. The half life of each test compound was determined graphically by plotting the decrease in concentrations as a function of time.

Data set [4] can be described thus: Enzymatic hydrolysis of beta blockers by dog liver homogenate (procedure C). To be noted: for remaining at 1 h / remaining at 2 h: dog, liver homogenate, 37° C.; for remaining at 1 h: read-out: Percent drug remaining, dog liver homogenate, 1 HR; for remaining at 2 h: read-out: Percent drug remaining, dog liver homogenate, 2 HR. The format is in vitro ADME. How it is done: as §1, §2, §3, §4

Data set [5] addresses T1, beta adrenergic receptor (guinea pig right atria) (Cavia porcellus, UniProt H0W3H1).
T1 construct: guinea pig right atria and guinea pig tracheal strips mounted in a tissue bath; from tissue; host or cells: guinea pig right atria, spontaneously beating
The data set is described as follows: Beta-blocking activity in vitro, guinea pig right atria (blockade of isoproterenol rate response). Conditions: Table I; guinea pig right atria, isoproterenol agonist, 60-minute incubation, 37° C.; read-out: PA2 Rt. Atria (converted).

The nature of data set [6]: Enzymatic hydrolysis of beta blockers by dog blood (procedure C). The format is in vitro ADME. Conditions: for remaining at 1 h / remaining at 2 h: dog, blood, 37° C.; for remaining at 1 h: read-out: Percent drug remaining, dog blood, 1 HR; for remaining at 2 h: read-out: Percent drug remaining, dog blood, 2 HR. How it is done: as §1, §2, §3, §4
The subject of data set [7] is beta adrenergic receptor (heart rate response to isoproterenol). The data set is described as follows: Duration and potency of beta-blocking action in vivo, 3-hour infusion in pentobarbital-anesthetized dogs. To be noted: Table II; for Recovery Time 50% / Recovery Time 80%: after termination of 3-hour infusion; for Potency: infusion rate adjusted so isoproterenol inhibition averaged about 50% at end of 3-hour infusion; for % I (Percent inhibition of heart rate response to isoproterenol): isoproterenol 0.5 μg/kg bolus, 3-hour infusion. Also on record: species or system dog. The procedure:
The duration of β-blockade was determined in vivo using pentobarbital-anesthetized dogs instrumented for measurement of heart rate using a Beckman cardiotachometer triggered electronically by a phasic aortic blood pressure signal. Both vagus nerves were severed in the cervical region and the animals were mechanically ventilated. The experimental design used employed a 3-hour infusion of test compound. Bolus doses of isoproterenol (0.5 μg/kg) were used to assess the degree of β-blockade and recovery from β-blockade after […] of the infusion. The doses were spaced at 10-minute intervals and were given before, during and following the infusion of test compounds. The infusion rate was adjusted so that at the end of the 3-hour infusion period the degree of isoproterenol inhibition averaged about 50% of control. Following termination of blocker infusion, percent recovery from β-blockade was computed and the time associated with 80% recovery estimated.

A short description of data set [8]: Half-lives of beta blockers in dog liver homogenate (procedure D). The format is in vitro ADME. Conditions: 33% (w/v) homogenate, 37° C., read-out: T1/2 dog liver homogenate. The procedure:
as §5

For data set [9] the following is noted: Physician's Desk Reference, 35th Edition, 1981, p. 1233; cited from earlier work.

T1 sequence (H0W3H1 1-470): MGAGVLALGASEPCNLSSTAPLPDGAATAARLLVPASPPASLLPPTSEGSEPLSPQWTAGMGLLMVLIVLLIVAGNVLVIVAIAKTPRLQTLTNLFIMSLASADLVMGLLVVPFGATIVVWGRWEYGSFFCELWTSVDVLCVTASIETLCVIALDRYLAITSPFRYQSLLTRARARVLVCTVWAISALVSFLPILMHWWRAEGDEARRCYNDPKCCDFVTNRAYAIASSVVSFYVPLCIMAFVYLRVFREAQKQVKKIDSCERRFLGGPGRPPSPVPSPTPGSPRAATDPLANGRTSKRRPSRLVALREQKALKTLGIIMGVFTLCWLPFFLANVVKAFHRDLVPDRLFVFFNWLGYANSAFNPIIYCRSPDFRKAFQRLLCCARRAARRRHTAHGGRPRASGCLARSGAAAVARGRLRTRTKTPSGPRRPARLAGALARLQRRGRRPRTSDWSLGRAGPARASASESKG

For orientation: fraction remaining means the share of the starting amount still present when the sample was taken. Turning to `CC(C)(CNC(=O)N1CCOCC1)NCC(O)COC(=O)c1ccccc1F` (stereo not drawn) [Example II, 3-[1,1-Dimethyl-2-(1-morpholinocarbonylamino)]ethylamino-2-hydroxypropyl 2-Fluorobenzoate Hydrochloride], in data set [1], the share remaining at 1 h came to 58%, the fraction remaining at 2 h was 32%, the half-life lay in the range of 60 to 120 min and the metabolised at 1 h came to 42%. In addition, the metabolised at 2 h in [1] was determined as 68%. Moreover, in [2], the “Cardioselectivity KB (Trachea)/KB (Atria)” value (“Cardioselectivity KB” for short) is 2. The half-life in [3] came out at 15 min. Moreover, in data set [4], the amount remaining at 1 h amounted to 0% and the amount remaining at 2 h amounted to 0%. Besides, the Kb in data set [5] is 3.16 nM. Also, in data set [6], the fraction remaining at 1 h is 0% and the fraction remaining at 2 h is 0%.
Turning to `CC(C)(CNC(=O)Cc1ccccc1)NCC(O)COC(=O)c1ccccc1F` (stereo not drawn) [Example VII, 3-[1,1-Dimethyl-2-(benzylcarbonylamino)]ethylamino-2-hydroxypropyl 2-Fluorobenzoate Hydrochloride], in data set [7], the “Recovery Time 50%” value stood at 8 min, the “Recovery Time 80%” value was found to be 19 min, the Potency is reported as 1.8 mg/kg/180 min and the “% I (Percent inhibition of heart rate response to isoproterenol)” value is recorded as 68%. Further, in data set [1], the share remaining at 1 h was 69%, the share remaining at 2 h is 46%, the half-life was approximately 120 min and the metabolised at 1 h amounted to 31%. In addition, the metabolised at 2 h in [1] turned out to be 54%. In addition, the half-life in data set [3] worked out at 6 min. The half-life in [8] was 25 min. Also, in data set [4], the amount remaining at 1 h turned out to be 0% and the amount remaining at 2 h was determined as 0%. Also, the “hydrolysis in liver homogenate” value in data set [4] (within 60 minutes) is recorded as “completely hydrolyzed”. For the same molecule, the Kb in data set [5] is 39.8 nM. Also, in data set [6], the amount remaining at 1 h was found to be 0% and the share remaining at 2 h was determined as 0%. Besides, the “hydrolysis in dog blood” value in data set [6] (within 60 minutes) was “completely hydrolyzed”.
Consider `CC(C)(CNC(N)=O)NCC(O)COC(=O)c1ccccc1F` (stereo not drawn) [Example X, 3-[1,1-Dimethyl-2-(aminocarbonylamino)]ethylamino-2-hydroxypropyl 2-Fluorobenzoate], for which, in [7], the “Recovery Time 80%” value was 21 min, the Potency came out at 0.7 mg/kg/180 min and the “% I (Percent inhibition of heart rate response to isoproterenol)” value was 49%. Moreover, in data set [1], the share remaining at 1 h was determined as 0% and the amount remaining at 2 h was determined as 0%. The half-life in [3] was found to be 15 min. For the same molecule, the half-life in data set [8] amounted to 2.5 min. In addition, in data set [4], the amount remaining at 1 h stood at 0% and the share remaining at 2 h worked out at 0%. In addition, in data set [5], the Kb is 20 nM. In [6], the share remaining at 1 h was found to be 0% and the fraction remaining at 2 h was 0%.
On to `CCOC(=O)NCC(C)(C)NCC(O)COC(=O)c1ccccc1F` (stereo not drawn) [IX, 3-[1,1-Dimethyl-2-(ethoxycarbonylamino)]ethylamino-2-hydroxypropyl 2-Fluorobenzoate Hydrochloride], for which, in data set [7], the “Recovery Time 50%” value is listed as 3 ± 1 min, the “Recovery Time 80%” value was 8 ± 3 min, the Potency turned out to be 6.5 ± 1.8 mg/kg/180 min and the “% I (Percent inhibition of heart rate response to isoproterenol)” value is 49 ± 4%. In data set [1], the amount remaining at 1 h is 0% and the share remaining at 2 h amounted to 0%. For the same molecule, the half-life in [3] turned out to be 8 min. The half-life in [8] worked out at 1 min. Besides, in data set [4], the fraction remaining at 1 h was 0% and the amount remaining at 2 h stood at 0%. In addition, the Kb in data set [5] is 79.4 nM. For the same molecule, in data set [6], the fraction remaining at 1 h is 0% and the amount remaining at 2 h turned out to be 0%.
For `CC(C)(CNC(=O)Nc1ccccc1)NCC(O)COC(=O)c1ccccc1F` (stereo not drawn) [XII, 3-[1,1-Dimethyl-2-(phenylaminocarbonylamino)]ethylamino-2-hydroxypropyl 2-Fluorobenzoate], in data set [2], the “Cardioselectivity KB” value came out at 5. Besides, in data set [5], the Kb is 79.4 nM.
Turning to `CC(C)(CNC(=O)N1CCOCC1)NCC(O)COC(=O)c1cc(O)cc(O)c1` (stereo not drawn) [XXXVIII, 3-[1,1-Dimethyl-2-(1-morpholinocarbonylamino)]ethylamino-2-hydroxypropyl 3,5-Dihydroxybenzoate Oxalate Hemihydrate], the “Cardioselectivity KB” value in data set [2] amounted to 1. In addition, the Kb in data set [5] was 1 nM.
Take `CC(C)(C)NC[C@H](O)COc1nsnc1N1CCOCC1` [timolol maleate]: the “adverse reactions to topical use” value in [9] was “bronchospasm and heart failure, as well as cardiac conduction defects”.
